≈ marks a conversion by molar mass, not a printed value. Where two headings read alike, the source gives them in different places.
How the values were obtained:
[1] = test system: Staphylococcus aureus LMG 15975 (MRSA); experiment: Direct antibacterial activity, broth microdilution MIC; assay type: cell-based; conditions: read-out: Direct Activity MRSA MIC
Method: (§1) Two types of antibacterial assays were employed as previously described. All the samples, essential oils, mixtures of essential oil types, and individual compounds were evaluated alone (direct activity) or in association with an antibiotic (indirect activity) at a sub-MIC concentration (non-active concentration). The tested strains were the Gram-positive Staphylococcus aureus LMG 15,975 (methicillin-resistant S. aureus, abbreviated as MRSA) and S. aureus LMG 21,674 (fusidic-acid-resistant S. aureus, abbreviated as FUSR). The chosen antibiotics were penicillin V and fusidic acid. The broth microdilution method in 96-well plates was used to determine the minimum inhibitory concentration (MIC). For the direct activity, samples were serially diluted to achieve a concentration ranging from 1 mg/mL to 2 μg/mL. For the indirect activity, the antibiotic was first serially diluted (from 64 to 7.103 μg/mL) and the samples were subsequently added to the wells at the defined sub-MIC concentration. These ranges were chosen because above them the sample is considered as non-active. For both assays, the inoculum was prepared from a suspension of 24-hour colonies to obtain a turbidity of 0.5 McFarland and added to the wells to achieve a final concentration of 5 × 10^5 CFU/mL. Plates were then incubated at 37 °C overnight and MTT (0.8 mg/mL) was used to determine the MIC by naked eye. A growth (Mueller–Hinton broth medium with inoculum) and a non-growth (only MHB) control were carried out. In addition, antibiotics were also always tested alone as positive controls.

[2] = test system: Staphylococcus aureus LMG 21674 (FUSR); experiment: as above; assay type: cell-based; conditions: for MIC: Staphylococcus aureus
Method: as §1

[3] = test system: Staphylococcus aureus LMG 15975 (MRSA); experiment: Indirect antibacterial activity in association with penicillin V; assay type: cell-based; conditions: sample at sub-MIC, versus penicillin V alone (4 μg/mL)
Description: as §1, with “All the samples, essential oils, mixtures of essential oil types, and individual compounds were evaluated alone (direct activity) or in association with an antibiotic (indirect activity) at a sub-MIC concentration (non-active concentration).” left out
(§2) The indirect activity presented in this study made use of a different method to test synergistic effects between two compounds. The difference with the traditional checkerboard method was that compound A (antibiotic) was serially diluted and compound B (essential oil/pure metabolite or homemade mixture) was added at a fix sub-MIC concentration, determined under the cytotoxic activity threshold. […] An indirect activity is observed when the MIC of the association is lower than the MIC of the antibiotic alone.

[4] = test system: Staphylococcus aureus LMG 21674 (FUSR); experiment: as above; assay type: cell-based; conditions: sample at sub-MIC, versus penicillin V alone (16 μg/mL)
Description: as §1, with “All the samples, essential oils, mixtures of essential oil types, and individual compounds were evaluated alone (direct activity) or in association with an antibiotic (indirect activity) at a sub-MIC concentration (non-active concentration).” left out
as §2

[5] = test system: human lung cells; conditions: cited from earlier work
[6] = Cytotoxic activity, colorimetric MTT assay on keratinocytes; assay type: cell-based; conditions: human, HaCaT keratinocyte cells, interpretation proposed by Döll-Boscardin et al.
Method: The effect of each essential oil on the global growth of the cell line was investigated through a colorimetric MTT assay as previously described. Briefly, human keratinocytes cells (HaCaT) were grown in RPMI supplemented with 10% fetal bovine serum and 0.5% penicillin-streptomycin and seeded at a density of 10 000 cells/mL in 96-well plates. […] The contact time of incubation was 72 h. Finally, after 3 to 5 hours of incubation with the MTT (0.5 mg/mL), the plates were centrifuged at 1200 rpm for 5 min, the supernatant was discarded, and the formazan crystals formed dissolved in DMSO. A spectrophotometer (680XR, BioRad, Hercules, CA, USA) was used to measure the absorbance (at 570 and 630 nm), which can be directly correlated to the number of viable cells (cell viability (% RC) = (absorbance of treated cells/absorbance of control) × 100).

[7] = test system: MRSA strains; conditions: same strain and other MRSA strains; cited from earlier work
[8] = test system: S. aureus MTCC 7405; set-up: method as in Dahham et al. (2015); conditions: ref Dahham et al. (2015); cited from earlier work
[9] = test system: S. aureus ATCC 25923 (MSSA); set-up: method as in PMID 16619365; conditions: cited from earlier work
[10] = test system: MSSA (ATCC 29,213); set-up: method as in PMID 32629822; conditions: cited from earlier work
[11] = test system: green monkey kidney, mouse fibroblast, human retinal ganglion, and human colon fibroblast cell lines; conditions: cited from earlier work
[12] = sample alone, broth microdilution, median
[13] = LMG21674, sample alone, broth microdilution, median, read-out: Direct Activity FUSR MIC

Row | Compound | MIC [1, 12] | MIC [2, 13] | decrease of the MIC of penicillin V on MRSA [3] | other results
1 | Cc1ccc(C(C)C)cc1O [Carvacrol] |  |  | 4 fold | MIC [1]: 250 µg/mL (≈ 1660 µM); MIC ([2]; LMG21674, read-out: Direct Activity FUSR MIC): 62.5 µg/mL (≈ 416 µM); decrease of the MIC of penicillin V on FUSR S. aureus [4]: 4 fold; cytotoxicity [5]: low cytotoxicity
2 | C=CC(C)(O)CCC=C(C)C (stereo not shown) [Linalool] | > 1000 µg/mL | > 1000 µg/mL |  | IC50 at 72 h [6]: < 31.3 µg/mL
3 | Cc1ccc(C(C)C)cc1 [p-cymene] | > 1000 µg/mL | > 1000 µg/mL |  | Direct Activity FUSR MIC [2, 12]: No direct activity
4 | C=C1CC/C=C(\C)CC[C@@H]2[C@@H]1CC2(C)C [β-caryophyllene] | > 1000 µg/mL | 31.3 µg/mL (≈ 153 µM) | 4 fold | decrease of the MIC of penicillin V on FUSR S. aureus [4]: 267 fold; MIC compared with kanamycin [8]: a better MIC on S. aureus MTCC 7405 than the kanamycin; MIC [9]: 5.1 µg/mL (≈ 25 µM); MIC [10]: 313 µg/mL (≈ 1530 µM); cytotoxic effect [11]: low cytotoxic effect
5 | C=CC(=C)CCC=C(C)C [β-myrcene] | > 1000 µg/mL | > 1000 µg/mL |  | 
6 | CC1=CCC(C(C)C)=CC1 [γ-terpinene] | > 1000 µg/mL | > 1000 µg/mL |  | Direct Activity FUSR MIC [2, 12]: No direct activity

Second part, led by results:

Row | MIC [1, 12] | MIC [2, 13] | Compound | decrease of the MIC of penicillin V on MRSA [3] | other results
7 | 4 µg/mL (≈ 11.4 µM) | 16 µg/mL (≈ 45.7 µM) | CC1(C)S[C@@H]2[C@H](NC(=O)COc3ccccc3)C(=O)N2[C@H]1C(=O)O [PEN V, penicillin V] |  | 
8 | 250 µg/mL (≈ 1660 µM) | 125 µg/mL (≈ 832 µM) | Cc1ccc(C(C)C)c(O)c1 [Thymol] | 4 fold | MIC [7]: around 600 μg/mL; cytotoxicity [5]: low cytotoxicity
9 |  | 256 µg/mL (≈ 495 µM) | CC(=O)O[C@H]1C[C@@]2(C)[C@@H](C[C@@H](O)[C@H]3[C@@]4(C)CC[C@@H](O)[C@@H](C)[C@@H]4CC[C@@]32C)/C1=C(\CCC=C(C)C)C(=O)O [fusidic acid] |  | 
10 | > 1000 µg/mL | 250 µg/mL (≈ 1840 µM) | C=C1CCC2CC1C2(C)C (stereo not drawn) [β-pinene] |  | 
